Measurements as given in US10654848B1, “Neutrophil inflammation inhibitor and uses thereof” (Chang Gung University of Science and Technology, priority 2018, dated 2020).

Assays:
human neutrophils = assay: Elastase release in fMLF/CB-activated human neutrophils (MeO-Suc-Ala-Ala-Pro-Val-p-nitroanilide substrate); assay type: cell-based; conditions: Neutrophil, neutrophils in response to fMLF, Table 2, read-out: IC50 for suppressing elastase release
Experimental: Human neutrophils were obtained in lipopolysaccharide-free conditions by means of dextran sedimentation and Ficoll centrifugation.
Methoxysuccinyl-Ala-Ala-Pro-Val-p-nitroanilide was employed as the elastase substrate for the determination of elastase release. Briefly, after supplementation with Methoxysuccinyl-Ala-Ala-Pro-Val-p-nitroanilide (100 μM), neutrophils (6×10^5/mL) were equilibrated at 37° C. for 2 min and incubated with a candidate compound at various concentrations for 5 min. Cells were then activated with fMLF (0.1 μM) for 10 min in the pre-process of CB (0.5 μg/mL) for 3 min, and changes in absorbance at 405 nm were continuously monitored to evaluate elastase release. Results are expressed as the percentage of elastase release in the drug-free control group, DMSO.

BALB/c mice [1] = assay: LPS-induced acute lung injury (ALI) model in mice; assay type: in vivo, mouse; conditions: 20 mg/Kg intravenous 1 hr before intratracheal LPS, 5 hrs
Experimental: (§1) Male BALB/c mice aged 7-8 weeks were purchased from BioLASCO (Taipei, Taiwan) and maintained in a room with 12 hr light/dark cycles. Standard laboratory chow and water were available ad libitum. All animal experimental procedures were performed in accordance with guidelines and approved by the Institutional Animal Care and Use Committee of Chang Gung University.
Mice were pre-treated with a candidate compound (e.g., HKI-4971), which was dissolved in 50 μl saline solution containing 10% DMSO and 20% Kolliphor EL (Sigma-Aldrich, USA), by intravenous injection. […]
Lung tissues were homogenized in PBS (50 Mm, pH 6.0) containing 0.5% (w/v) hexadecyltrimethylammonium bromide (HETAB) (Sigma-Aldrich, USA) by using the MagNA Lyser Instrument (Roche, Germany), and was further centrifuged at 12,000×g for 20 min at 4° C. to remove the insoluble material. The peroxidase activity was measured as the oxidation of o-Dianisidine dihydrochloride (Sigma-Aldrich, USA). […] The absorption was determined spectrophotometrically at 405 nm. […]
In this example, the Gram-negative bacterial endotoxin LPS induced ALI in mice was employed to mimic ARDS in human, and the effect of HKI-4971 was evaluated. […]

BALB/c mice [2] = assay: Imiquimod-induced psoriasis-like skin inflammation in mice; assay type: in vivo, mouse; conditions: 20 mg/kg intraperitoneal, 30 min before 5% IMQ cream, daily for 7 days
Experimental: as §1
Male BALB/c mice aged 7-8 weeks were used for the development of the imiquimod-induced psoriatic-like plaque model. The dorsal skin of the mice were shaved and received a daily topical dose of 62.5 mg of 5% imiquimod (IMQ) cream (Aldara, MEDA Pharma, Sweden) with or without a test compound (e.g., HKI-4971) treatment by intraperitoneal injection for 7 consecutive days.
Tissue samples were fixed in 10% neutral buffered formalin and embedding in paraffin blocks. Sections of the samples were prepared at 5 μm thickness and stained with hematoxylin and eosin (H&E). For immunohistochemistry staining, the sections were incubated with primary antibodies against Ly6g, MPO, and ki67 then the secondary antibody was applied for the detection of the primary antibody according to the manufacturer's instructions of the SuperPicture Polymer Detection Kit (Thermo Fisher, USA). Finally, the section slides were subsequently stained with DAB chromogen and counterstained with hematoxylin. […]

BALB/c mice [3] = assay: Liver and kidney function (ALT, AST, BUN, creatinine) in blood of imiquimod-induced mice; assay type: in vivo, mouse; conditions: blood samples, 20 mg/kg intraperitoneal, alone or with IMQ, 7 days; FIG. 3 (n=3)
Experimental: In this example, the effect of HKI-4971 (or compound 13) on the development of psoriasis was investigated using the well-established psoriasis animal model, in which imiquimod (IMQ) was used to induce psoriasis-like skin inflammation. Briefly, BALB/c mice are pre-treated by intraperitoneal injection of HKI-4971 (20 mg/kg) for 30 min before 5% IMQ cream was topically administered onto the back of the mice every day for 7 days. Then, skin samples taken from these animals were subjected to microscopy examination and immunohistochemistry staining, while blood samples were subjected to analysis for liver and kidney functions. Results are depicted in FIGS. 1 to 3.
Blood samples taken from IMQ- or IMQ+HKI-4971 treated animals were analyzed for the levels of alanine aminotransferase and aspartate transaminase, which were used as indicators for assessing liver function; and the levels of blood […] nitrogen (BUN) and creatinine (CRE), which were used as indicators for assessing the kidney function. Results are illustrated in FIG. 3.

Q: Which results are given for `Cn1nc(N)c2c(Nc3ccc(O)cc3)nc3ccccc3c21` [Compound 13, 4-(4-Hydroxyanilino)-1-methyl-1H-pyrazolo[4,3-c]quinolin-3-amine]?
A: IC50 (human neutrophils): 32 ± 17 nM; MPO activity in lung tissues (BALB/c mice [1]; FIG. 4(A) (n=3)): suppressed; LPS-induced neutrophil infiltration and lung injury (H&E, Ly6g and MPO staining of lung sections) (BALB/c mice [1]; FIG. 4(B)): significantly alleviated; Severity or progression of IMQ-induced psoriasis (BALB/c mice [2]; FIG. 1): reduce the severity or progression; Immunostaining of skin: markers for cell proliferation (ki-67) and for neutrophils (Ly6g and MPO) (BALB/c mice [2]; FIG. 2): reduced; Liver function (alanine aminotransferase, aspartate transaminase) and kidney function (BUN, creatinine) (BALB/c mice [3]): did not result in significant damage
